Literature values in PubChem BioAssay AID1259409 (Chemical Carcinogenesis Research Information System (CCRIS), 2018).

System: rodent chemically induced tumor inhibition, incidence and multiplicity
Assay: CCRIS tumor inhibitor studies

C[C@H]1[C@H](C)CC[C@]2(C(=O)O)CC[C@]3(C)C(=CC[C@@H]4[C@@]5(C)CC[C@H](O)C(C)(C)[C@@H]5CC[C@]43C)[C@H]12
tumour outcome (control, treated, inhibition, significance) (Carcinogen: 7,12-DIMETHYLBENZ[A]ANTHRACENE : 57-97-6, Dose [Inhibitor]: 0, 2 UMOL IN 200 µL ACETONE 2/WK FOR 20 WK BEGINNING 1 WK POST CARCINOGEN DOSE (STUDY DURATION: 20 WK), Route [Inhibitor]: DERMAL, Species: MOUSE, Strain/Sex: CD-1/FEMALE, Target Tissue: Type of Lesion: SKIN: TUMOR, Dose [Carcinogen]: 200 NMOL IN 200 µL ACETONE ONCE, Promoter: 12-O-TETRADECANOYLPHORBOL-13-ACETATE, 16561-29-8): 93%, 62%, 33%, not significant
tumour outcome (control, treated, inhibition, significance) (Carcinogen: 7,12-DIMETHYLBENZ[A]ANTHRACENE, 57-97-6, Dose [Inhibitor]: 0, 0.1 UMOL IN 200 µL ACETONE 2/WK FOR 18 WK BEGINNING 1 WK POST CARCINOGEN DOSE (STUDY DURATION: 18 WK), Route [Inhibitor]: DERMAL, Species: MOUSE, Strain/Sex: CD-1/FEMALE, Target Tissue: Type of Lesion: SKIN: TUMOR, Dose [Carcinogen]: 200 NMOL IN 200 µL ACETONE ONCE, Promoter: 12-O-TETRADECANOYLPHORBOL-13-ACETATE, 16561-29-8): 87%, 87%, 0%, not significant
tumour outcome (control, treated, inhibition, significance) (Carcinogen: 7,12-DIMETHYLBENZ[A]ANTHRACENE, 57-97-6, Dose [Inhibitor]: 0, 0.3 UMOL IN 200 µL ACETONE 2/WK FOR 18 WK BEGINNING 1 WK POST CARCINOGEN DOSE (STUDY DURATION: 18 WK), Route [Inhibitor]: DERMAL, Species: MOUSE, Strain/Sex: CD-1/FEMALE, Target Tissue: Type of Lesion: SKIN: TUMOR, Dose [Carcinogen]: 200 NMOL IN 200 µL ACETONE ONCE, Promoter: 12-O-TETRADECANOYLPHORBOL-13-ACETATE, 16561-29-8): 87%, 93%, -7%, not significant
tumour outcome (control, treated, inhibition, significance) (Carcinogen: 7,12-DIMETHYLBENZ[A]ANTHRACENE, 57-97-6, Dose [Inhibitor]: 0, 1 UMOL IN 200 µL ACETONE 2/WK FOR 18 WK BEGINNING 1 WK POST CARCINOGEN DOSE (STUDY DURATION: 18 WK), Route [Inhibitor]: DERMAL, Species: MOUSE, Strain/Sex: CD-1/FEMALE, Target Tissue: Type of Lesion: SKIN: TUMOR, Dose [Carcinogen]: 200 NMOL IN 200 µL ACETONE ONCE, Promoter: 12-O-TETRADECANOYLPHORBOL-13-ACETATE, 16561-29-8): 87%, 77%, 11%, not significant
tumour outcome (control, treated, inhibition, significance) (Carcinogen: 7,12-DIMETHYLBENZ[A]ANTHRACENE, 57-97-6, Dose [Inhibitor]: 0, 1 UMOL IN 200 µL ACETONE 2/WK FOR 20 WK BEGINNING 1 WK POST CARCINOGEN DOSE (STUDY DURATION: 20 WK), Route [Inhibitor]: DERMAL, Species: (30,30)/(30,30), Strain/Sex: CD-1/FEMALE, Target Tissue: Type of Lesion: SKIN: TUMOR, Dose [Carcinogen]: 200 NMOL IN 200 µL ACETONE ONCE, Promoter: 12-O-TETRADECANOYLPHORBOL-13-ACETATE, 16561-29-8): 93%, 80%, 14%, not significant
tumour outcome (control, treated, inhibition, significance) (Carcinogen: 7,12-DIMETHYLBENZ[A]ANTHRACENE, 57-97-6, Dose [Inhibitor]: 0, 2 UMOL IN 200 µL ACETONE 2/WK FOR 18 WK BEGINNING 1 WK POST CARCINOGEN DOSE (STUDY DURATION: 18 WK), Route [Inhibitor]: DERMAL, Species: MOUSE, Strain/Sex: CD-1/FEMALE, Target Tissue: Type of Lesion: SKIN: TUMOR, Dose [Carcinogen]: 200 NMOL IN 200 µL ACETONE ONCE, Promoter: 12-O-TETRADECANOYLPHORBOL-13-ACETATE, 16561-29-8): 87%, 60%, 31%, not significant

CC(C)=CCC/C(C)=C/CC/C(C)=C/CC/C=C(\C)CC/C=C(\C)CCC=C(C)C
tumour outcome (control, treated, inhibition, significance) (Carcinogen: BENZO[A]PYRENE, 50-32-8, Dose [Inhibitor]: 25 MG IN 0.1 ML ACETONE 3/WK ADMINISTERED SIMULTANEOUSLY WITH CARCINOGEN FOR DURATION OF STUDY (STUDY DURATION: 440 D), Route [Inhibitor]: DERMAL, Species: MOUSE, Strain/Sex: ICR/FEMALE, Target Tissue: Type of Lesion: SKIN: PAPILLOMA, Dose [Carcinogen]: 5 UG IN 0.1 ML ACETONE 3/WK FOR DURATION OF STUDY, Promoter: NONE USED): 16/50 (32%), 1/50 (2%), 94%, not calculated
tumour outcome (control, treated, inhibition, significance) (Carcinogen: BENZO[A]PYRENE, 50-32-8, Dose [Inhibitor]: 25 MG IN 0.1 ML ACETONE 3/WK ADMINISTERED SIMULTANEOUSLY WITH CARCINOGEN FOR DURATION OF STUDY (STUDY DURATION: 440 D), Route [Inhibitor]: DERMAL, Species: MOUSE, Strain/Sex: ICR/FEMALE, Target Tissue: Type of Lesion: SKIN: SQUAMOUS CARCINOMA, Dose [Carcinogen]: 5 UG IN 0.1 ML ACETONE 3/WK FOR DURATION OF STUDY, Promoter: NONE USED): 12/50 (24%), 0/50 (0%), 100%, not calculated

CC(C)CCC[C@@H](C)[C@H]1CC[C@H]2[C@@H]3CC=C4C[C@@H](OS(=O)(=O)O)CC[C@]4(C)[C@H]3CC[C@]12C
tumour outcome (control, treated, inhibition, significance) (Carcinogen: 7,12-DIMETHYLBENZ[A]ANTHRACENE, 57-97-6, Dose [Inhibitor]: 0, 400 UG IN 0.2 ML METHANOL:ACETONE (1:4) APPLIED 10 MIN PRIOR TO EACH PROMOTER DOSE FOR 20 WK (STUDY DURATION: 20 WK), Route [Inhibitor]: DERMAL, Species: MOUSE, Strain/Sex: CD-1/FEMALE, Target Tissue: Type of Lesion: SKIN: TUMOR, Dose [Carcinogen]: 100 UG ONCE, Promoter: 12-O-TETRADECANOYLPHORBOL-13-ACETATE, 16561-29-8, MEZEREIN, 34807-41-5, Promoter: 12-O-TETRADECANOYLPHORBOL-13-ACETATE, 16561-29-8, MEZEREIN, 34807-41-5): 90%, 40%, 56%, not calculated

Clc1ccccc1C(c1ccccc1)(c1ccccc1)n1ccnc1
tumour outcome (control, treated, inhibition, significance) (Carcinogen: 3-METHYLCHOLANTHRENE, 56-49-5, Dose [Inhibitor]: 0, 2.9 UMOL IN 0.1 ML ACETONE 1 HR PRIOR TO CARCINOGEN DOSE 2/WK FOR 16 WK (STUDY DURATION: 16 WK), Route [Inhibitor]: DERMAL, Species: MOUSE, Strain/Sex: BALB/FEMALE, Target Tissue: Type of Lesion: SKIN: TUMORS, Dose [Carcinogen]: 1.8 UMOL IN 0.2 ML ACETONE 2/WK FOR 16 WK, Promoter: NONE USED): 100%, 70%, 30%, p<0.05

Cc1cc(O)cc(=O)o1
tumour outcome (control, treated, inhibition, significance) (Carcinogen: BENZO[A]PYRENE, 50-32-8, Dose [Inhibitor]: 0.034 MMOL/G IN DIET FOR 5 WK BEGINNING 1 WK PRIOR TO FIRST CARCINOGEN DOSE AND CONTINUING FOR 3 D POST LAST CARCINOGEN, Route [Inhibitor]: ORAL, Species: MOUSE, Strain/Sex: ICR/FEMALE, Target Tissue: Type of Lesion: FORESTOMACH: TUMOR, Dose [Carcinogen]: 1 MG IN 0.2 ML CORN OIL 2/WK FOR 4 WK STARTING, Promoter: NONE USED): 94%, 85%, 10%, not significant

O=c1cc(-c2ccc(O)c(O)c2)oc2cc(O)cc(O)c12
tumour outcome (control, treated, inhibition, significance) (Carcinogen: 7,12-DIMETHYLBENZ[A]ANTHRACENE, 57-97-6, Dose [Inhibitor]: 0, 0.2 ML OF A 1% SOLUTION 1/D FOR 2 WK APPLIED 5 MIN POST EACH CARCINOGEN DOSE THEN 1/D FOR 4 WK DURING PROMOTION STAGE, Route [Inhibitor]: DERMAL, Species: MOUSE, Strain/Sex: SWISS/MALE, Target Tissue: Type of Lesion: SKIN: PAPILLOMA, Dose [Carcinogen]: 0.2 ML OF A 0.24% SOLUTION IN DMSO 1/D FOR 2 WK, Promoter: CROTON OIL, 8001-28-3): 23/23 (100%), 10/24 (42%), 58%, not calculated
tumour outcome (control, treated, inhibition, significance) (Carcinogen: 7,12-DIMETHYLBENZ[A]ANTHRACENE, 57-97-6, Dose [Inhibitor]: 0, 0.2 ML OF A 1% SOLUTION 1/D FOR 2 WK APPLIED 5 MIN PRIOR TO EACH CARCINOGEN DOSE (STUDY DURATION: 20 WK), Route [Inhibitor]: DERMAL, Species: MOUSE, Strain/Sex: SWISS/MALE, Target Tissue: Type of Lesion: SKIN: PAPILLOMA, Dose [Carcinogen]: 0.2 ML OF A 0.24% SOLUTION IN DMSO 1/D FOR 2 WK, Promoter: CROTON OIL, 8001-28-3): 23/23 (100%), 20/23 (87%), 13%, not calculated
